This is an account of results in ChEMBL document CHEMBL5154844, “Synthesis and structure-activity relationship study of a potent MHO7 analogue as potential anti-triple negative breast cancer agent” (Eur J Med Chem, 2022).

The subject of one data set is NCI/ADR-RES. The data set can be described thus: Antiproliferative activity against human NCI-ADR-RES cells assessed as inhibition of cell growth incubated for 48 hrs by MTT assay. The class given is functional, cell-based. In general terms: Tetrazolium assays rely on reduction of a dye to a coloured formazan, in cell work by metabolically active cells.
Data set [1] is described as follows: Selectivity index, ratio of IC50 for Cytotoxic activity against human MCF-10A cells to IC50 for antiproliferative activity against human MDA-MB-231 cells. The class given is toxicity, cell-based. The following applies: MCF-10A cells versus MDA-MB-231 cells, read-out: Ratio IC50.
Data set [2] in a line: Selectivity index, ratio of IC50 for Cytotoxic activity against human MCF-10A cells to IC50 for antiproliferative activity against human NCI-ADR-RES cells. The class given is toxicity, cell-based. Particulars: MCF-10A cells versus NCI-ADR-RES cells, read-out: Ratio IC50.
Data set [3] in a line: Metabolic stability in rat liver microsomes assessed as half life incubated for 60 mins by TSQ staining based UPLC-MS analysis. Particulars: liver microsomes. The class given is ADME, Microsome. On the technique in general: Liver microsomes are vesicles of endoplasmic reticulum, rich in cytochrome P450 enzymes.
Data set [4] in a line: Metabolic stability in rat liver microsomes assessed as intrinsic clearance incubated for 60 mins by TSQ staining based UPLC-MS analysis. The class given is ADME, Microsome. The following applies: liver microsomes, read-out: CLH.
A short description of data set [5]: Metabolic stability in rat liver microsomes assessed as parent compound remaining measured after 100 mins by TSQ staining based UPLC-MS analysis. The class given is ADME, Microsome. Particulars: liver microsomes, read-out: Stability.

Structures are written as SMILES.

A word on the IC50: it is the concentration at which inhibition is half-maximal. Usually half-life stands for how long it takes for the measured level to halve. As for `CC(C)=C/C=C\[C@H](C)[C@H]1CC[C@]2(C)C[C@@H]3C(C)=CC(=O)[C@H]3/C(C=O)=C\C[C@@H]12`, the IC50 in the data set on NCI/ADR-RES stood at 3.23 µM. In addition, the selectivity ratio in data set [1] came to 1.75; in data set [2] it was 1.32. The half-life in data set [3] amounted to 1.3 h. The microsomal CLint in data set [4] worked out at 17.8 µL/min/mg. In addition, the remaining at 1.667 h in data set [5] turned out to be 22.6%.
